Assay results from ChEMBL document CHEMBL3425477, “Compounds from the insect Blaps japanensis with COX-1 and COX-2 inhibitory activities” (Bioorg Med Chem Lett, 2015).

Tests used:
[1] = biological target: T1, Prostaglandin G/H synthase 2 (Homo sapiens, UniProt P35354); test: Inhibition of human recombinant COX2 pre-incubated for 15 mins followed by addition of heme and fluorometric substrate and further incubated for 15 mins in presence of arachidonic acid by fluorescence based assay
T1 sequence (P35354 whole entry): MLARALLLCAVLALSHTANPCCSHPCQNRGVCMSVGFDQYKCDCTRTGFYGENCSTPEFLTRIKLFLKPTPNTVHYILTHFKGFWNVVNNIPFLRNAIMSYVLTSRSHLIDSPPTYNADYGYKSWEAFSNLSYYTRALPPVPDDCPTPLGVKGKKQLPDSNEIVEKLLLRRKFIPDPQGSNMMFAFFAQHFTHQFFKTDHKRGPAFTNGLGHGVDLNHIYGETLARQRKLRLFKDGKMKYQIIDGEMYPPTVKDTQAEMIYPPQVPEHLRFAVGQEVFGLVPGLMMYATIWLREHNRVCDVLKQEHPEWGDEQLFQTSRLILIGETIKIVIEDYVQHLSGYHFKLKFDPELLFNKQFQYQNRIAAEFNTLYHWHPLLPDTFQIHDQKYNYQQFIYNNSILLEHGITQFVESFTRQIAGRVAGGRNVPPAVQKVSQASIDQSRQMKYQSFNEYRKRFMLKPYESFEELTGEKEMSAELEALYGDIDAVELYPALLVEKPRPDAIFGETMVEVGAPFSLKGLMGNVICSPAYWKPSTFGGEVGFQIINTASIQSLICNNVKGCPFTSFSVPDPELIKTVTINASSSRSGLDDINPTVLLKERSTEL

[2] = biological target: T2, Prostaglandin G/H synthase 1 (Ovis aries, UniProt P05979); test: Inhibition of ovine COX1 pre-incubated for 15 mins followed by addition of heme and fluorometric substrate and further incubated for 15 mins in presence of arachidonic acid by fluorescence based assay
T2 sequence (P05979 whole entry): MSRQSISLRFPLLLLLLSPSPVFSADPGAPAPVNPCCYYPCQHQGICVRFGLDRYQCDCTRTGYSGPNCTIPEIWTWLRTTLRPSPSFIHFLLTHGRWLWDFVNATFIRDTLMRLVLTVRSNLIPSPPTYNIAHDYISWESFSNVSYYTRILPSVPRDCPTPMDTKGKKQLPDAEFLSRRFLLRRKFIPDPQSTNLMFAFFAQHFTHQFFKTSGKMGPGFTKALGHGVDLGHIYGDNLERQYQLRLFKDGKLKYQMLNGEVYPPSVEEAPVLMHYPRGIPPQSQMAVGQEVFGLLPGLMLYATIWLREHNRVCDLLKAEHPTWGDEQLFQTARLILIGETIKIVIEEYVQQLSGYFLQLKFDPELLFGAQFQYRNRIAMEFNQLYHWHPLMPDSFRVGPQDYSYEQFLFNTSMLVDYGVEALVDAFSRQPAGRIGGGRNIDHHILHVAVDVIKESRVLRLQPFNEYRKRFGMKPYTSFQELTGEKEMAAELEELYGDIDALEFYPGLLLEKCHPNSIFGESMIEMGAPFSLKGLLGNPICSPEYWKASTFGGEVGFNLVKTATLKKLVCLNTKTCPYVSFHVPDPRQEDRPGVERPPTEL

Row | IC50 [1] [µM] | IC50 [2] | IC50 ([2]; read-out: IC50) [µM] | Compound
1 | 8.6 | Not Active |  | CCO[C@]1(c2ccc(O)c(O)c2)Oc2cc(CCO)ccc2O[C@H]1O
2 | 3.6 | Not Active |  | CC(=O)NCCc1ccc2c(c1)O[C@H](c1ccc(O)c(O)c1)[C@@H](NC(C)=O)O2 (relative stereo)
3 | 2.6 | Not Active |  | CC(=O)NCCc1ccc2c(c1)O[C@H](NC(C)=O)[C@@H](c1ccc(O)c(O)c1)O2
4 | 2.7 |  | 13.8 | CC(=O)/N=C/Cc1ccc2c(c1)O[C@H](c1ccc(O)c(O)c1)[C@@H](NC(C)=O)O2 (relative stereo)
5 | 6.02 | Not Active |  | CO[C@]1(c2ccc(O)c(O)c2)Oc2ccc(CCO)cc2O[C@H]1O
6 | 9.7 | Not Active |  | CO[C@]1(c2ccc(O)c(O)c2)Oc2cc(CCO)ccc2O[C@H]1O
7 | 17.8 | Not Active |  | CO[C@@]1(c2ccc(O)c(O)c2)Oc2cc(CCO)ccc2O[C@@H]1O
8 | 8.24 | Not Active |  | CO[C@@]1(c2ccc(O)c(O)c2)Oc2ccc(CCO)cc2O[C@@H]1O
9 | 2.52 | Not Active |  | CCO[C@@]1(c2ccc(O)c(O)c2)Oc2ccc(CCO)cc2O[C@@H]1O
10 | 1.3 | Not Active |  | CC(=O)N[C@H]1Oc2cc(CCO)ccc2O[C@@H]1c1ccc(O)c(O)c1 (relative stereo)
11 | 2.5 | Not Active |  | CC(=O)N[C@H]1Oc2ccc(CCO)cc2O[C@@H]1c1ccc(O)c(O)c1 (relative stereo)
12 | 6.04 | Not Active |  | CCOC1(c2ccc(O)c(O)c2)Oc2ccc(CCO)cc2OC1O (stereo unspecified)
13 | 13.7 | Not Active |  | CCO[C@@]1(c2ccc(O)c(O)c2)Oc2cc(CCO)ccc2O[C@@H]1O
